The values that follow are results of earlier work, collected in patent US20200155510A1, “TREATMENT OF AUTOIMMUNE DISORDERS, SUCH AS RELAPSING REMITTING MULTIPLE SCLEROSIS AND […] SYNDROME WITH BIOTIN COMPOSITIONS” (JDS Therapeutics, LLC, priority 2018, published 2020).

For the data set the following is noted: relative to biotin; background statement, no method given.

In the case of `O=C(O)CCCC[C@@H]1SC[C@@H]2NC(=O)N[C@@H]21` [Magnesium biotinate, Magnesium D-biotinate], the water solubility entry was “more water soluble than biotin”.
